For this test, the system named is phosphorylation of Serine 473 in Akt in MDA-MB-468 human breast adenocarcinoma cells. Briefly: In vitro phospho-Ser473 Akt assay (Test (c)). It counts as cell-based. To be noted: Homo sapiens, MDA-MB-468, 2 h, MDA-MB-468 cells, 2 hours incubation; read-out: Test (c): IC50 versus Serine 473 in Akt. The method, then: (c) In Vitro Phospho-Ser473 Akt Assay
This assay determines the ability of test compounds to inhibit phosphorylation of Serine 473 in Akt as assessed using Acumen Explorer technology (Acumen Bioscience Limited), a plate reader that can be used to rapidly quantitate features of images generated by laser-scanning.
A MDA-MB-468 human breast adenocarcinoma cell line (LGC Promochem, Teddington, Middlesex, UK, Catalogue No. HTB-132) was routinely maintained at 37° C. with 5% CO2 up to a confluency of 70-90% in DMEM containing 10% heat-inactivated FCS and 1% L-glutamine.
For the assay, the cells were detached from the culture flask using ‘Accutase’ (Innovative Cell Technologies Inc., San Diego, Calif., USA; Catalogue No. AT104) using standard tissue culture methods and resuspended in media to give 1.7×10^5 cells per mL. Aliquots (90 μl) were seeded into each of the inner 60 wells of a black Packard 96 well plate (PerkinElmer, Boston, Mass., USA; Catalogue No. 6005182) to give a density of 15000 cells per well. Aliquots (90 μl) of culture media were placed in the outer wells to prevent edge effects. The cells were incubated overnight at 37° C. with 5% CO2 to allow them to adhere.
On day 2, the cells were treated with test compounds and incubated for 2 hours at 37° C. with 5% CO2. Test compounds were prepared as 10 mM stock solutions in DMSO and serially diluted as required with growth media to give a range of concentrations that were 10-fold the required final test concentrations. Aliquots (10 μl) of each compound dilution were placed in a well (in triplicate) to give the final required concentrations. As a minimum response control, each plate contained wells having a final concentration of 100 μM LY294002 (Calbiochem, Beeston, UK, Catalogue No. 440202). As a maximum response control, wells contained 1% DMSO instead of test compound. Following incubation, the contents of the plates were fixed by treatment with a 1.6% aqueous formaldehyde solution (Sigma, Poole, Dorset, UK, Catalogue No. F1635) at room temperature for 1 hour.
All subsequent aspiration and wash steps were carried out using a Tecan 96 well plate washer (aspiration speed 10 mm/sec). The fixing solution was removed and the contents of the plates were washed with phosphate-buffered saline (PBS; 50 μl; Gibco, Catalogue No. 10010015). The contents of the plates were treated for 10 minutes at room temperature with an aliquot (50 μl) of a cell permeabilisation buffer consisting of a mixture of PBS and 0.5% Tween-20. The ‘permeabilisation’ buffer was removed and non-specific binding sites were blocked by treatment for 1 hour at room temperature of an aliquot (50 μl) of a blocking buffer consisting of 5% dried skimmed milk [‘Marvel’ (registered trade mark); Premier Beverages, Stafford, GB] in a mixture of PBS and 0.05% Tween-20. The ‘blocking’ buffer was removed and the cells were incubated for 1 hour at room temperature with rabbit anti phospho-Akt (Ser473) antibody solution (50 μl per well; Cell Signalling, Hitchin, Herts, U.K., Catalogue No 9277) that had been diluted 1:500 in ‘blocking’ buffer. Cells were washed three times in a mixture of PBS and 0.05% Tween-20. Subsequently, cells were incubated for 1 hour at room temperature with Alexafluor488 labelled goat anti-rabbit IgG (50 μl per well; Molecular Probes, Invitrogen Limited, Paisley, UK, Catalogue No. A11008) that had been diluted 1:500 in ‘blocking’ buffer. Cells were washed 3 times with a mixture of PBS and 0.05% Tween-20. An aliquot of PBS (50 μl) was added to each well and the plates were sealed with black plate sealers and the fluorescence signal was detected and analysed.
Fluorescence dose response data obtained with each compound were analysed and the degree of inhibition of Serine 473 in Akt was expressed as an IC50 value.
For `CCNC(=O)Nc1ccc(-c2nc(N3CCOC[C@@H]3C)cc(C(C)(C)S(C)(=O)=O)n2)cn1` [Example 24ai, 1-ethyl-3-[5-[4-[(3S)-3-methylmorpholin-4-yl]-6-(2-methylsulfonylpropan-2-yl)pyrimidin-2-yl]pyridin-2-yl]urea], the IC50 is 260 nM. On to `C[C@H]1COCCN1c1cc(C(C)(C)S(C)(=O)=O)nc(-c2ccc(NC(=O)NC3CC3)nc2)n1` [Example 24aj, 3-cyclopropyl-1-[5-[4-[(3S)-3-methylmorpholin-4-yl]-6-(2-methylsulfonylpropan-2-yl)pyrimidin-2-yl]pyridin-2-yl]urea], for which the IC50 worked out at 450 nM. As for `CCCNC(=O)Nc1ccc(-c2nc(N3CCOC[C@@H]3C)cc(C(C)(C)S(C)(=O)=O)n2)cc1` [Example 24ak, 3-[4-[4-[(3S)-3-methylmorpholin-4-yl]-6-(2-methylsulfonylpropan-2-yl)pyrimidin-2-yl]phenyl]-1-propyl-urea], the IC50 turned out to be 210 nM.

Consider `CC(C)NC(=O)Nc1ccc(-c2nc(N3CCOC[C@@H]3C)cc(C(C)(C)S(C)(=O)=O)n2)cc1` [Example 24al, 1-[4-[4-[(3S)-3-methylmorpholin-4-yl]-6-(2-methylsulfonylpropan-2-yl)pyrimidin-2-yl]phenyl]-3-propan-2-yl-urea], for which the IC50 came to 38 nM. `C[C@H]1COCCN1c1cc(C(C)(C)S(C)(=O)=O)nc(-c2ccc(NC(=O)NC3CCC3)cc2)n1` [Example 24am, 3-cyclobutyl-1-[4-[4-[(3S)-3-methylmorpholin-4-yl]-6-(2-methylsulfonylpropan-2-yl)pyrimidin-2-yl]phenyl]urea]: the IC50 stood at 210 nM. Take `C[C@H]1COCCN1c1cc(C(C)(C)S(C)(=O)=O)nc(-c2ccc(NC(=O)NC(C)(C)CO)cc2)n1` [Example 24an, 3-(1-hydroxy-2-methyl-propan-2-yl)-1-[4-[4-[(3S)-3-methylmorpholin-4-yl]-6-(2-methylsulfonylpropan-2-yl)pyrimidin-2-yl]phenyl]urea]: the IC50 worked out at 1800 nM.

Take `C[C@H]1COCCN1c1cc(C(C)(C)S(C)(=O)=O)nc(-c2ccc(NC(=O)NCc3cccnc3)cc2)n1` [Example 24ao, 1-[4-[4-[(3S)-3-methylmorpholin-4-yl]-6-(2-methylsulfonylpropan-2-yl)pyrimidin-2-yl]phenyl]-3-(pyridin-3-ylmethyl)urea]: the IC50 was found to be 240 nM. As to `C[C@H](CO)NC(=O)Nc1ccc(-c2nc(N3CCOC[C@@H]3C)cc(C(C)(C)S(C)(=O)=O)n2)cc1` [Example 24ap, 3-[(2R)-1-hydroxypropan-2-yl]-1-[4-[4-[(3S)-3-methylmorpholin-4-yl]-6-(2-methylsulfonylpropan-2-yl)pyrimidin-2-yl]phenyl]urea], the IC50 was 77 nM. As to `C[C@H]1COCCN1c1cc(C(C)(C)S(C)(=O)=O)nc(-c2ccc(NC(=O)NCC3CC3)cc2)n1` [Example 24aq, 3-(cyclopropylmethyl)-1-[4-[4-[(3S)-3-methylmorpholin-4-yl]-6-(2-methylsulfonylpropan-2-yl)pyrimidin-2-yl]phenyl]urea], the IC50 was 2000 nM. For `C[C@H]1COCCN1c1cc(C(C)(C)S(C)(=O)=O)nc(-c2ccc(NC(=O)NCc3ccncc3)cc2)n1` [Example 24ar, 1-[4-[4-[(3S)-3-methylmorpholin-4-yl]-6-(2-methylsulfonylpropan-2-yl)pyrimidin-2-yl]phenyl]-3-(pyridin-4-ylmethyl)urea], the IC50 was found to be 49 nM. The figure for `C[C@H]1COCCN1c1cc(C(C)(C)S(C)(=O)=O)nc(-c2ccc(NC(=O)NCCCO)cc2)n1` [Example 24as, 3-(3-hydroxypropyl)-1-[4-[4-[(3S)-3-methylmorpholin-4-yl]-6-(2-methylsulfonylpropan-2-yl)pyrimidin-2-yl]phenyl]urea] is 220 nM; for `CC(C)CNC(=O)Nc1ccc(-c2nc(N3CCOC[C@@H]3C)cc(C(C)(C)S(C)(=O)=O)n2)cc1` [Example 24at, 1-[4-[4-[(3S)-3-methylmorpholin-4-yl]-6-(2-methylsulfonylpropan-2-yl)pyrimidin-2-yl]phenyl]-3-(2-methylpropyl)urea] it is 89 nM; for `C[C@H]1COCCN1c1cc(C(C)(C)S(C)(=O)=O)nc(-c2ccc(NC(=O)NCc3ncc[nH]3)cc2)n1` [Example 24au, 3-(1H-imidazol-2-ylmethyl)-1-[4-[4-[(3S)-3-methylmorpholin-4-yl]-6-(2-methylsulfonylpropan-2-yl)pyrimidin-2-yl]phenyl]urea] it is 2400 nM.

As to `C[C@H]1COCCN1c1cc(C(C)(C)S(C)(=O)=O)nc(-c2ccc(NC(=O)NCc3cnn(C)c3)cc2)n1` [Example 24av, 1-[4-[4-[(3S)-3-methylmorpholin-4-yl]-6-(2-methylsulfonylpropan-2-yl)pyrimidin-2-yl]phenyl]-3-[(1-methylpyrazol-4-yl)methyl]urea], the IC50 was 4900 nM. On to `Cc1cc(CNC(=O)Nc2ccc(-c3nc(N4CCOC[C@@H]4C)cc(C(C)(C)S(C)(=O)=O)n3)cc2)no1` [Example 24aw, 3-[4-[4-[(3S)-3-methylmorpholin-4-yl]-6-(2-methylsulfonylpropan-2-yl)pyrimidin-2-yl]phenyl]-1-[(5-methyl-1,2-oxazol-3-yl)methyl]urea], for which the IC50 stood at 3400 nM.

Consider `CC(NC(=O)Nc1ccc(-c2nc(N3CCOC[C@@H]3C)cc(C(C)(C)S(C)(=O)=O)n2)cc1)c1cccnc1` (stereo partly drawn) [Example 24ax, 1-[4-[4-[(3S)-3-methylmorpholin-4-yl]-6-(2-methylsulfonylpropan-2-yl)pyrimidin-2-yl]phenyl]-3-(1-pyridin-3-ylethyl)urea], for which the IC50 is 640 nM. As to `C[C@H]1COCCN1c1cc(C(C)(C)S(C)(=O)=O)nc(-c2ccc(NC(=O)NCc3cc[nH]n3)cc2)n1` [Example 24ay, 1-[4-[4-[(3S)-3-methylmorpholin-4-yl]-6-(2-methylsulfonylpropan-2-yl)pyrimidin-2-yl]phenyl]-3-(1H-pyrazol-3-ylmethyl)urea], the IC50 is 7900 nM.

Consider `C[C@H]1COCCN1c1cc(C(C)(C)S(C)(=O)=O)nc(-c2ccc(NC(=O)NCc3ccn(C)n3)cc2)n1` [Example 24az, 1-[4-[4-[(3S)-3-methylmorpholin-4-yl]-6-(2-methylsulfonylpropan-2-yl)pyrimidin-2-yl]phenyl]-3-[(1-methylpyrazol-3-yl)methyl]urea], for which the IC50 was determined as 5600 nM.

As for `C[C@H]1COCCN1c1cc(C(C)(C)S(C)(=O)=O)nc(-c2ccc(NC(=O)N(C)C)cc2)n1` [Example 24ba, 1,1-dimethyl-3-[4-[4-[(3S)-3-methylmorpholin-4-yl]-6-(2-methylsulfonylpropan-2-yl)pyrimidin-2-yl]phenyl]urea], the IC50 was 5100 nM. As for `C[C@H]1COCCN1c1cc(C(C)(C)S(C)(=O)=O)nc(-c2ccc(NC(=O)N3CCOCC3)cc2)n1` [Example 24bb, N-[4-[4-[(3S)-3-methylmorpholin-4-yl]-6-(2-methylsulfonylpropan-2-yl)pyrimidin-2-yl]phenyl]morpholine-4-carboxamide], the figure is 7800 nM.

As for `C[C@H]1COCCN1c1cc(C(C)(C)S(C)(=O)=O)nc(-c2ccc(NC(=O)N3CCC(O)CC3)cc2)n1` [Example 24bc, 4-hydroxy-N-[4-[4-[(3S)-3-methylmorpholin-4-yl]-6-(2-methylsulfonylpropan-2-yl)pyrimidin-2-yl]phenyl]piperidine-1-carboxamide], the IC50 was 690 nM. Turning to `C[C@H]1COCCN1c1cc(C(C)(C)S(C)(=O)=O)nc(-c2ccc(NC(=O)N3CCCC(O)C3)cc2)n1` (stereo partly drawn) [Example 24bd, 3-hydroxy-N-[4-[4-[(3S)-3-methylmorpholin-4-yl]-6-(2-methylsulfonylpropan-2-yl)pyrimidin-2-yl]phenyl]piperidine-1-carboxamide], the half-inhibitory concentration (IC50) was found to be 3200 nM.

One may read the IC50 as the concentration at which inhibition is half-maximal.

Source of the values: US7750003B2, “Compounds-943” (AstraZeneca AB, priority 2006, dated 2010).
